# Laboratory results published in patent US4954510A, “Antiviral agent containing lactam compound” (Meiji Seika Kaisha, Ltd., priority 1987, dated 1990).
# Where a name gives a salt, the structure may show the parent alone. Read-outs that look alike come from different tables or passages of the source.
# Columns and labels:
# AIDS patients = details: in words, cited from earlier work
# [1] = acute toxicity (LD50) in mice; details: mouse, in vivo
# Procedure: The LD50 value of D-glucaro-δ-lactam sodium salt in mice is not less than 3 g/kg by the intraveous injection and not less than 5 g/kg by the oral administration. The LD50 value of D-glucaro-δ-lactam methyl ester in mice is not less than 5 g/kg by the intraveous injection and not less than 10 g/kg by the oral administration. With respect to 6-O-triphenylmethyl-D-gluco-δ-lactam, the LD50 value is not less than 300 mg/kg in case of the subcutaneous administration in mice.
# [2] = test system: human T-lymphotropic MT-2 cell line; assay: inhibition of growth of normal non-infected cells (MT-2); assay type: cell-based; details: Homo sapiens, MT2, 168 h; MT-2 cells without HIV, 7 days, viable cell count by colorimetry; read-out: IC50 (concentration giving a 50% inhibition of growth of normal non-infected cells)
# Procedure: (§1) Namely, the host human T-lymphotropic MT-2 cell line is transplanted on a microtiter plate and a series of dilutions of the test compounds shown in the table below are added with or without addition of HIV, followed by incubation for 7 days. For evaluation, the residual viable cell count is then determined by colorimetry.
# (§2) In the above table, EC50 means the concentration of the test compound giving a 50% decrease in the cytocidal effect of HIV and IC50 means the concentration of the test compound giving a 50% inhibition of growth of normal non-infected cells.
# HIV = assay: in vitro anti-HIV activity: decrease in the cytocidal effect of HIV on MT-2 cells; assay type: cell-based; details: for EC50: Human immunodeficiency virus 1, MT2, 168 h, read-out: EC50 (concentration giving a 50% decrease in the cytocidal effect of HIV); for TI50 (IC50/EC50): ratio IC50/EC50, 10080 min
# Procedure: as §1, §2
# [3] = inhibition of growth of normal non-infected cells (MT-2); assay type: cell-based, human; details: human; MT-2 cells without HIV, 7 days, viable cell count by colorimetry; read-out: IC50 (concentration giving a 50% inhibition of growth of normal non-infected cells)
# Procedure: as §1, §2
compound,measurement,setting,value
"Cc1cn([C@H]2C[C@H](N=[N+]=[N-])[C@@H](CO)O2)c(=O)[nH]c1=O [azidothymidine (AZT), azidothymidine]",side effects in clinical application,AIDS patients; listed as AZT,side effects of AZT on bone marrow
same,side effects in clinical application,AIDS patients,"serious side effects such as bone marrow depression, anemia and neurologic disorders such as headache and convulsion"
COC(=O)[C@H]1NC(=O)[C@H](O)[C@@H](O)[C@@H]1O [D-glucaro-δ-lactam methyl ester],LD50,[1]; intravenous injection,≥ 5000 mg/kg
same,LD50,[1]; oral administration,≥ 10000 mg/kg
O=C(O)[C@H]1NC(=O)[C@H](O)[C@@H](O)[C@@H]1O [D-glucaro-δ-lactam calcium salt],IC50,[2],> 250 µg/mL
same,EC50,"HIV; MT-2 cells, with HIV, 7 days, viable cell count by colorimetry",< 0.25 ng/mL
same,TI50 (IC50/EC50),HIV,> 1.00 × 10^6
O=C(O)[C@H]1NC(=O)[C@H](O)[C@@H](O)[C@@H]1O [D-glucaro-δ-lactam sodium salt],LD50,[1]; intravenous injection,≥ 3000 mg/kg
same,LD50,[1]; oral administration,≥ 5000 mg/kg
O=C1N[C@H](COC(c2ccccc2)(c2ccccc2)c2ccccc2)[C@@H](O)[C@H](O)[C@H]1O [6-O-triphenylmethyl-D-gluco-δ-lactam],CC50 at 168 h,[3],31.7 µg/mL
same,LD50,"[1]; sc, subcutaneous administration",≥ 300 mg/kg
same,EC50,HIV,0.0386 ng/mL
same,TI50 (IC50/EC50),HIV,8.19 × 10^5
